Reference: patent US20090123563A1, “Pharmaceutical Preparations Comprising Insulin, Zinc Ions and Zinc-Binding Ligand” (NOVO NORDISK A/S, priority 2005, published 2009)

| melting point [°C] | SMILES |
| --- | --- |
| 200 to 202 | c1cc(COc2ccc3ccccc3c2)cc(-c2nnn[nH]2)c1 |
| 259 to 263 | CN(C)c1ccc(/C=C/C=C2\SC(=O)NC2=O)cc1 |
| 256 | COc1cc(/C=C2\SC(=O)NC2=O)cc(I)c1O |
| 104 to 105 | Cc1cccc(C)c1/C=C1\SC(=O)NC1=O |
| 152 to 154 | O=C1NC(=O)/C(=C/c2c(Cl)cccc2Cl)S1 |
| 255 to 256 | COc1cc(OCc2c(F)cccc2[N+](=O)[O-])cc(OC)c1/C=C1\SC(=O)NC1=O |
| 241 to 242 | COc1cccc(OC)c1/C=C1\SC(=O)NC1=O |
| 331 to 333 | COc1cc(O)cc(OC)c1/C=C1\SC(=O)NC1=O |
| 265 to 266 | O=C1NC(=O)/C(=C/c2cc3ccccc3o2)S1 |
| 338 to 347 | O=C1NC(=O)/C(=C/c2cc3ccccc3[nH]c2=O)S1 |
| 330 to 333 | O=C1NC(=O)/C(=C/c2c[nH]c3ccc([N+](=O)[O-])cc23)S1 |
| 251 to 254 | O=C1NC(=O)/C(=C/C(Cl)=C/c2ccccc2)S1 |
| 310 to 314 | O=C1NC(=O)/C(=C/c2ccc3cc(O)ccc3c2)S1 |
| 203 to 210 | CC(/C=C1\SC(=O)NC1=O)=C\c1ccccc1 |
